Results reported in patent publication US20230407377A1, “CRISPR/CAS SCREENING SYSTEM MATERIALS AND METHODS” (University of Copenhagen, priority 2020, published 2023).

Tests used:
SW620 (MLH1+/+) cells = test: MUT:WT* ratio of MLH1 loss-of-function variants without or with 6-thioguanine; type: cell-based, human; settings: E448STOP, Q537STOP; 2 μM 6-thioguanine until Day 11
Description: Data represent ratios normalized to the value at Day 2 and are means of 3 independent experiments +/−SD. Two-tailed paired t-test were used to calculate the significance in all cases. NS=not significant. ** indicates p<0.01. *** indicates p<0.001. The figure and results are further described in the Examples.
Cultures of human colon cancer SW620 (MLH1+/+) cells were nucleofected with SpCas9 protein and synthetic gRNA/tracrRNA targeting genomic sites in MLH1 overlapping the sites to be mutated along with an oligonucleotide comprising the mutation of interest (MUT), which was as a known loss-of-function variant (E448STOP or Q537STOP), and an oligonucleotide comprising a corresponding synonymous mutation (WT*). At Day 2 after nucleofection, an aliquot of the cell culture was analysed by PCR amplification of the genomic target site and NGS of the PCR product to determine the ratio of MUT to WT* alleles in the cell population. Thereafter, cells were split in two cultures, and cultured in the absence (−) or presence (+) of 2 μM 6-thioguanine until Day 11, where after the mutation analysis was repeated for each culture.

[1] = test system: H358 cells xenografted into nude mice; test: H358 xenograft in nude mice treated with vehicle or AMG 510: tumor volume and 12D versus 12C* ratio; type: in vivo; settings: treated once per day from two weeks after xenografting, versus vehicle
Protocol: (A) A culture of human lung cancer H358 cells was nucleofected with SpCas9 protein and synthetic gRNA/tracrRNA targeting the oncogenic 12C mutation in KRAS present in these cells along with an oligonucleotide comprising the mutation of interest, which was another oncogenic KRAS mutation (12D), and an oligonucleotide comprising a synonymous mutation ([…]). At Day 2 after transfection, an aliquot of the cell culture was analysed by PCR amplification of the genomic target site and NGS of the PCR product to determine the ratio of 12D versus 12C* alleles in the cell population. […] (B) Determination of tumor volumes over time. (C) Representative mice photographed on day 40. […]
A culture of human lung cancer H358 cells was nucleofected with SpCas9 protein and synthetic gRNA/tracrRNA targeting the oncogenic 12C mutation in KRAS present in these cells along with an oligonucleotide comprising the mutation of interest, which was another oncogenic KRAS mutation (12D), and an oligonucleotide comprising a synonymous mutation (12C*). At Day 2 after transfection, an aliquot of the cell culture was analysed by PCR amplification of the genomic target site and NGS of the PCR product to determine the ratio of 12D versus 12C* alleles in the cell population. […] (B) Tumor volumes were determined over time and, (C) representative mice photographed on day 40.

Hep3B cells = test: FGFR4 550M to WT* ratio in cells cultured without or with Fisogatinib; type: cell-based, human; settings: 0.72 μM Fisogatinib until Day 16; ratios normalized to Day 2
Description: Data represent ratios normalized to the value at Day 2 and are means of 3 independent experiments +/−SD. Two-tailed paired t-tests were used to calculate the significance in all cases. NS=not significant. ** indicates p<0.01. The figure and results are further described in the Examples.
Cultures of human liver cancer Hep3B cells, which harbor FGF19 focal amplification, were nucleofected with SpCas9 protein and synthetic gRNA/tracrRNA targeting a genomic site overlapping the site to be mutated along with an oligonucleotide comprising the mutation of interest (V550M) in the Fisogatinib-binding site of FGFR4 and an oligonucleotide comprising a synonymous mutation (WT*). At Day 2 after nucleofection, an aliquot of the cell culture was analysed by PCR amplification of the genomic target site and NGS of the PCR product to determine the ratio of 550M to WT* alleles in the cell population. Thereafter, cells were split in two cultures, and cultured in the absence (−) or presence (+) of 0.72 μM Fisogatinib until Day 16, whereafter the mutation analysis was repeated on each culture. […] Such applications of the method are important for clinical management as well as for drug development in the pharmaceutical industry.

MCF10A (ATM+/+) cells = test: MUT:WT* ratio of ATM loss-of-function variants without or with Talazoparib; type: cell-based, human; settings: R23STOP, Q218STOP, E365STOP; 2 nM Talazoparib until Day 12
Description: Data represent ratios normalized to the value at Day 2 and show a representative experiment. The figure and results are further described in the Examples.
Cultures of human breast epithelial MCF10A (ATM+/+) cells expressing SpCas9 were transfected with synthetic gRNA/tracrRNA targeting genomic sites in ATM overlapping the sites to be mutated along with an oligonucleotide comprising the mutation of interest (MUT), which was as known loss-of-function variants (R23STOP, Q218STOP or E365STOP), and an oligonucleotide comprising a corresponding synonymous mutation (WT*). At Day 2 after transfection, an aliquot of each culture was analysed by PCR amplification of the genomic target site and NGS of the PCR product to determine the ratio of MUT to WT* alleles in the cell population. Thereafter, cells were cultured in the absence (−) or presence (+) of 2 nM Talazoparib (a PARP inhibitor) until Day 12, where after the mutation analysis was repeated.

MCF10A-BRCA2+/− cells = test: MUT:WT* ratio of BRCA2 variants in cells cultured without or with PARP inhibitor; type: cell-based, human; settings: 2 nM Talazoparib until Day 12, ratios normalized to Day 2
Protocol: At Day 2 after transfection, an aliquot of each culture was analysed by PCR amplification of the genomic target site and NGS of the PCR product to determine the ratio of MUT to WT* alleles in the cell population. Thereafter, cells were cultured in the absence or presence of 2 nM Talazoparib (a PARP inhibitor) until Day 12, whereafter the mutation analysis was repeated. Data represent ratios
normalized to the value at Day 2 and are means of 3 independent experiments +/−SD. Two-tailed unpaired t-tests were used to calculate the significance in all cases. NS=not significant. ** indicates p<0.01. **** indicates p<0.0001.
BRCA2 loss-of-function mutations sensitize cells to inhibitors of PARP, which are used in clinical trials/in the clinic as a synthetic lethal personalized therapy for cancer patients with BRCA inactivating mutations. We analysed one neutral BRCA2 mutation (D946V) and two loss-of-function BRCA2 mutations (I2627N, Y2660C) in breast epithelial MCF10A-BRCA2+/− cells cultured in the absence or presence of PARP inhibitor. […] Furthermore, the method will thereby also be useful for the purpose of drug development, drug testing and stratification of cancer patients in clinical trials with new drugs.

SMILES: Nc1nc2nc[nH]c2c(=S)[nH]1 [6-thioguanine]
- ability of MLH1 to elicit apoptosis in response to 6-thioguanine in cells with loss-of-function mutations (SW620 (MLH1+/+) cells): disabled

SMILES: C=CC(=O)N1CCN(c2nc(=O)n(-c3c(C)ccnc3C(C)C)c3nc(-c4c(O)cccc4F)c(F)cc23)[C@@H](C)C1 [AMG 510]
- bulk tumor size (tumor volumes over time) [1]: greatly reduced

SMILES: C=CC(=O)N[C@H]1CCOC[C@H]1Nc1ncc2cc(-c3c(Cl)c(OC)cc(OC)c3Cl)ccc2n1 [Fisogatinib]
- selection of cells harboring the FGFR4-V550M mutation relative to WT* (resistance) (Hep3B cells): strongly selected for

SMILES: Cn1ncnc1[C@H]1c2n[nH]c(=O)c3cc(F)cc(c23)N[C@@H]1c1ccc(F)cc1 [Talazoparib]
- sensitivity of cells with loss-of-function ATM mutations to PARP inhibitor killing (MCF10A (ATM+/+) cells): sensitized them to PARP inhibitor killing
- effect on cells with the neutral BRCA2 mutation (MUT:WT* ratio) (MCF10A-BRCA2+/− cells; D946V): no effect
- cell proliferation and/or survival of cells with the loss-of-function BRCA2 mutations (MCF10A-BRCA2+/− cells; I2627N, Y2660C): greatly decreased
